The record followed here is patent US12084472B2 (Ardelyx, Inc., priority 2015, dated 2024).

The target in the assay is T1, human TGR5 (Homo sapiens, UniProt Q8TDU6).
T1 construct: expressed in transfected cells; host or cells: HEK293
T1 sequence (Q8TDU6 1-330): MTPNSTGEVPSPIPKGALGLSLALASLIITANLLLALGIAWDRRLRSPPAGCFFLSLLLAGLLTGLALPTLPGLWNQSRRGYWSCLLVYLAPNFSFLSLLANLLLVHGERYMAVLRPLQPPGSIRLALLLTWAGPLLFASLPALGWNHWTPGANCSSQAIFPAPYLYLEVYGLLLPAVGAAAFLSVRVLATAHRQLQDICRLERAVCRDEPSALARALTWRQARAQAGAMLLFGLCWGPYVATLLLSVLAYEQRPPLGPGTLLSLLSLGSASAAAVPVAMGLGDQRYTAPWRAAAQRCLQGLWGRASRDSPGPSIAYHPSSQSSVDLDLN
Description: Cell-based TGR5 assay (cAMP generation, HTRF). The following applies: HEK293 cells stably transfected with human TGR5; cAMP by HTRF; 30 minutes at 37° C.; read-out: pEC50 Human TGR5 (converted). In outline:
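First, compounds in 3-fold serial dilution were placed in HBSS with 10 mM HEPES pH 7.4 and 0.5 mM IBMX. Next, human TGR5-expressing HEK293 cells were added and incubated 30 min at 37° C. Finally, cAMP was detected by HTRF and pEC50 derived by logistic fitting.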
For the compound `CNC(=O)CN(C[C@H](O)[C@@H](O)[C@H](O)[C@H](O)CO)C(=O)CCCC(C)c1ccc(C)c(CNC2(c3cnccc3-c3ccccc3OC3CC3)CC2)c1` (stereo partly drawn) [Compound I-360, 5-{3-[({1-[4-(2-cyclopropoxyphenyl)pyridin-3-yl]cyclopropyl}amino)methyl]-4-methylphenyl}-N-[(methylcarbamoyl)methyl]-N-[(2S,3R,4R,5R)-2,3,4,5,6-pentahydroxyhexyl]hexanamide], the EC50 was less than 100 nM.
Consider `Cc1ccc(C(C)CCCC(=O)N(CCN(C)C)C[C@H](O)[C@@H](O)[C@H](O)[C@H](O)CO)cc1CNC1(c2cnccc2-c2ccccc2OC2CC2)CC1` (stereo partly drawn) [Compound I-361, 5-{3-[({1-[4-(2-cyclopropoxyphenyl)pyridin-3-yl]cyclopropyl}amino)methyl]-4-methylphenyl}-N-[2-(dimethylamino)ethyl]-N-[(2S,3R,4R,5R)-2,3,4,5,6-pentahydroxyhexyl]hexanamide], for which the EC50 was 126 to 1000 nM.
Under `COCCCN(C[C@H](O)[C@@H](O)[C@H](O)[C@H](O)CO)C(=O)CCCC(C)c1ccc(C)c(CNC2(c3cnccc3-c3ccccc3OC3CC3)CC2)c1` (stereo partly drawn) [Compound I-362, 5-{3-[({1-[4-(2-cyclopropoxyphenyl)pyridin-3-yl]cyclopropyl}amino)methyl]-4-methylphenyl}-N-(3-methoxypropyl)-N-[(2S,3R,4R,5R)-2,3,4,5,6-pentahydroxyhexyl]hexanamide] stands less than 100 nM.
Next, `Cc1ccc(C(C)CCCC(=O)N(C[C@H](O)[C@@H](O)[C@H](O)[C@H](O)CO)C2CCOCC2)cc1CNC1(c2cnccc2-c2ccccc2OC2CC2)CC1` (stereo partly drawn) [Compound I-363, 5-{3-[({1-[4-(2-cyclopropoxyphenyl)pyridin-3-yl]cyclopropyl}amino)methyl]-4-methylphenyl}-N-(oxan-4-yl)-N-[(2S,3R,4R,5R)-2,3,4,5,6-pentahydroxyhexyl]hexanamide]: less than 100 nM.
Next, `Cc1ccc(C(C)CCCC(=O)N(CC(=O)N(C)C)C[C@H](O)[C@@H](O)[C@H](O)[C@H](O)CO)cc1CNC1(c2cnccc2-c2ccccc2OC2CC2)CC1` (stereo partly drawn) [Compound I-364, 5-{3-[({1-[4-(2-cyclopropoxyphenyl)pyridin-3-yl]cyclopropyl}amino)methyl]-4-methylphenyl}-N-[(dimethylcarbamoyl)methyl]-N-[(2S,3R,4R,5R)-2,3,4,5,6-pentahydroxyhexyl]hexanamide]: 126 to 1000 nM; `CCNC(=O)CCN(C[C@H](O)[C@@H](O)[C@H](O)[C@H](O)CO)C(=O)CCCC(C)c1ccc(C)c(CNC2(c3cnccc3-c3ccccc3OC3CC3)CC2)c1` (stereo partly drawn) [Compound I-365, 5-{3-[({1-[4-(2-cyclopropoxyphenyl)pyridin-3-yl]cyclopropyl}amino)methyl]-4-methylphenyl}-N-[2-(ethylcarbamoyl)ethyl]-N-[(2S,3R,4R,5R)-2,3,4,5,6-pentahydroxyhexyl]hexanamide]: 126 to 1000 nM.
With `Cc1ccc(C(C)CCCC(=O)N(CCC(=O)N(C)C)C[C@H](O)[C@@H](O)[C@H](O)[C@H](O)CO)cc1CNC1(c2cnccc2-c2ccccc2OC2CC2)CC1` (stereo partly drawn) [Compound I-366, 5-{3-[({1-[4-(2-cyclopropoxyphenyl)pyridin-3-yl]cyclopropyl}amino)methyl]-4-methylphenyl}-N-[2-(dimethylcarbamoyl)ethyl]-N-[(2S,3R,4R,5R)-2,3,4,5,6-pentahydroxyhexyl]hexanamide], the EC50 was 126 to 1000 nM.
Under `Cc1ccc(C(C)CCCC(=O)N(CCS(C)(=O)=O)C[C@H](O)[C@@H](O)[C@H](O)[C@H](O)CO)cc1CNC1(c2cnccc2-c2ccccc2OC2CC2)CC1` (stereo partly drawn) [Compound I-369, 5-{3-[({1-[4-(2-cyclopropoxyphenyl)pyridin-3-yl]cyclopropyl}amino)methyl]-4-methylphenyl}-N-(2-methanesulfonylethyl)-N-[(2S,3R,4R,5R)-2,3,4,5,6-pentahydroxyhexyl]hexanamide] stands less than 100 nM; under `Cc1ccc(C(C)CCCC(=O)N(CCCS(C)(=O)=O)C[C@H](O)[C@@H](O)[C@H](O)[C@H](O)CO)cc1CNC1(c2cnccc2-c2ccccc2OC2CC2)CC1` (stereo partly drawn) [Compound I-370, 5-{3-[({1-[4-(2-cyclopropoxyphenyl)pyridin-3-yl]cyclopropyl}amino)methyl]-4-methylphenyl}-N-(3-methanesulfonylpropyl)-N-[(2S,3R,4R,5R)-2,3,4,5,6-pentahydroxyhexyl]hexanamide], less than 100 nM.
Under `Cc1ccc(C(C)CCCC(=O)N2CCN(CC(=O)NC[C@H](O)[C@@H](O)[C@H](O)[C@H](O)CO)CC2)cc1CNC1(c2cnccc2-c2ccccc2OC2CC2)CC1` (stereo partly drawn) [Compound I-371, 2-[4-(5-{3-[({1-[4-(2-cyclopropoxyphenyl)pyridin-3-yl]cyclopropyl}amino)methyl]-4-methylphenyl}hexanoyl)piperazin-1-yl]-N-[(2S,3R,4R,5R)-2,3,4,5,6-pentahydroxyhexyl]acetamide] stands less than 100 nM; under `CC(CCCC(=O)NCCN1CCN(C(=O)NC[C@H](O)[C@@H](O)[C@H](O)[C@H](O)CO)CC1)c1ccc(Cl)c(CN(C(=O)NC[C@H](O)[C@@H](O)[C@H](O)[C@H](O)CO)C2(c3cnccc3-c3ccccc3OC3CC3)CC2)c1` (stereo partly drawn) [Compound I-372, 4-[2-(5-{4-chloro-3-[(1-{l-[4-(2-cyclopropoxyphenyl)pyridin-3-yl]cyclopropyl}{[(2S,3R,4R,5R)-2,3,4,5,6-pentahydroxyhexyl]carbamoyl}amino)methyl]phenyl}hexanamido)ethyl]-N-[(2S,3R,4R,5R)-2,3,4,5,6-pentahydroxyhexyl]piperazine-1-carboxamide], 1260 to 10000 nM.
Under `CCN(C[C@H](O)[C@@H](O)[C@H](O)[C@H](O)CO)C(=O)CCCC(C)c1ccc(Cl)c(COC2(c3cnccc3-c3ccccc3OC3CC3)CC2)c1` (stereo partly drawn) [Compound I-373, 5-[4-chloro-3-({1-[4-(2-cyclopropoxyphenyl)pyridin-3-yl]cyclopropoxy}methyl)phenyl]-N-ethyl-N-[(2S,3R,4R,5R)-2,3,4,5,6-pentahydroxyhexyl]hexanamide] stands less than 100 nM; under `CC(CCCC(=O)N(CCO)C[C@H](O)[C@@H](O)[C@H](O)[C@H](O)CO)c1ccc(Cl)c(COC2(c3cnccc3-c3ccccc3OC3CC3)CC2)c1` (stereo partly drawn) [Compound I-374, 5-[4-chloro-3-({1-[4-(2-cyclopropoxyphenyl)pyridin-3-yl]cyclopropoxy}methyl)phenyl]-N-(2-hydroxyethyl)-N-[(2S,3R,4R,5R)-2,3,4,5,6-pentahydroxyhexyl]hexanamide], less than 100 nM; under `CCN(C[C@H](O)[C@@H](O)[C@H](O)[C@H](O)CO)C(=O)CCCC(C)c1ccc(C)c(COC2(c3cnccc3-c3ccccc3OC3CC3)CC2)c1` (stereo partly drawn) [Compound I-375, 5-[3-({1-[4-(2-cyclopropoxyphenyl)pyridin-3-yl]cyclopropoxy}methyl)-4-methylphenyl]-N-ethyl-N-[(2S,3R,4R,5R)-2,3,4,5,6-pentahydroxyhexyl]hexanamide], less than 100 nM.
Turning to `Cc1ccc(C(C)CCCC(=O)N(CCO)C[C@H](O)[C@@H](O)[C@H](O)[C@H](O)CO)cc1COC1(c2cnccc2-c2ccccc2OC2CC2)CC1` (stereo partly drawn) [Compound I-376, 5-[3-({1-[4-(2-cyclopropoxyphenyl)pyridin-3-yl]cyclopropoxy}methyl)-4-methylphenyl]-N-(2-hydroxyethyl)-N-[(2S,3R,4R,5R)-2,3,4,5,6-pentahydroxyhexyl]hexanamide], the EC50 is less than 100 nM.
Under `CC(=O)N(CCCC(C)c1ccc(Cl)c(CNC2(c3cnccc3-c3ccccc3OC3CC3)CC2)c1)C[C@H](O)[C@@H](O)[C@H](O)[C@H](O)CO` (stereo partly drawn) [Compound I-377, N-(4-{4-chloro-3-[({1-[4-(2-cyclopropoxyphenyl)pyridin-3-yl]cyclopropyl}amino)methyl]phenyl}pentyl)-N-[(2S,3R,4R,5R)-2,3,4,5,6-pentahydroxyhexyl]acetamide] stands less than 100 nM; under `CC(=O)N(CCCCC(C)c1ccc(Cl)c(CNC2(c3cnccc3-c3ccccc3OC3CC3)CC2)c1)C[C@H](O)[C@@H](O)[C@H](O)[C@H](O)CO` (stereo partly drawn) [Compound I-378, N-(5-{4-chloro-3-[({1-[4-(2-cyclopropoxyphenyl)pyridin-3-yl]cyclopropyl}amino)methyl]phenyl}hexyl)-N-[(2S,3R,4R,5R)-2,3,4,5,6-pentahydroxyhexyl]acetamide], less than 100 nM.
Under `CC(CCCC(=O)N(C)C[C@H](O)[C@@H](O)[C@H](O)[C@H](O)CO)c1cc(Cl)c(CNC2(c3cnccc3-c3ccccc3OC3CC3)CC2)cc1Cl` (stereo partly drawn) [Compound I-379, 5-{2,5-dichloro-4-[({1-[4-(2-cyclopropoxyphenyl)pyridin-3-yl]cyclopropyl}amino)methyl]phenyl}-N-methyl-N-[(2S,3R,4R,5R)-2,3,4,5,6-pentahydroxyhexyl]hexanamide] stands 126 to 1000 nM.
For the compound `O=C(NCCCC(CO)c1ccc(Cl)c(CNC2(c3cnccc3-c3ccccc3OC3CC3)CC2)c1)[C@@H](O)[C@@H](O)[C@H](O)[C@@H](O)CO` (stereo partly drawn) [Compound I-380, (2S,3S,4R,5S)-N-(4-[4-chloro-3-[([1-[4-(2-cyclopropoxyphenyl)pyridin-3-yl]cyclopropyl]amino)methyl]phenyl]-5-hydroxypentyl)-2,3,4,5,6-pentahydroxyhexanamide], the EC50 is 126 to 1000 nM.
